Our source for the EC50 values is patent publication US9693997B2, “Antiviral compounds” (priority 2013, dated 2017).

For experiment [1], the system named is Pseudotyped HCV GT1b particles (HCVpp), entry into Huh7-high CD81 cells. In words: microbe, parasite or virus in culture. Format: cell-based, HCV GT1b Con1 strain.
Experiment [2] deals with pseudotyped VSV G particles (VSVpp) in Huh7-high CD81 cells. In words: microbe, parasite or virus in culture. The experiment is classed as cell-based, vesicular stomatitis virus. Conditions: Vesicular stomatitis virus, 72 h, read-out: VSVpp (EC50, μM).
Setting [3] is: Hepatitis C virus, GT1B, 72 h, read-out: HCVpp GT-1b (EC50, μM).

Structures can show the parent of a compound that is named as a salt. Where two headings read alike, the source gives them in different places. Bounds are passed on as bounds.

For orientation: EC50 means the concentration that produces a half-maximal response. Turning to `Nc1nc(Nc2cc(Cl)c(-c3ccc(OC4CCNCC4)cc3)c(Cl)c2)n[nH]1` [Compound 262, N*3*-[2,6-Dichloro-4′-(piperidin-4-yloxy)-biphenyl-4-yl]-1H-[1,2,4]triazole-3,5-diamine], the EC50 in experiment [1] (setting [3]) is 0.05 µM; in experiment [2], 4.87 µM.

Take `CNS(=O)(=O)c1cccc(-c2c(F)cc(Nc3nc(N)n[nH]3)cc2C(F)(F)F)c1` [Compound 81, 4′-(5-Amino-2H-[1,2,4]-triazol-3-ylamino)-6′-fluoro-2′-trifluoromethyl-biphenyl-3-sulfonic acid methylamide]: the half-maximal effective concentration (EC50) in experiment [1] (setting [3]) amounted to 0.549 µM; in experiment [2], 34.9 µM.

On to `CS(=O)(=O)n1ccc2c(-c3c(Cl)cc(Nc4n[nH]c(N)n4)cc3Cl)cccc21` [Compound 15, N*3*-[3,5-Dichloro-4-(1-methanesulfonyl-1H-indol-4-yl)-phenyl]-1H-[1,2,4]triazole-3,5-diamine], for which the EC50 in experiment [1] (setting [3]) was determined as 0.05 µM; in experiment [2], 0.23 µM.

For the compound `CC(C)(C)NC(=O)c1ccc(-c2c(Cl)cc(Nc3n[nH]c(N)n3)cc2Cl)cc1` [Compound 8, 4′-(5-Amino-1H-[1,2,4]triazol-3-ylamino)-2′,6′-dichloro-biphenyl-4-carboxylic acid tert-butylamide], the EC50 in experiment [1] (setting [3]) was 0.013 µM; in experiment [2], > 10 µM.

Take `CS(=O)(=O)n1ccc2cc(-c3c(Cl)cc(Nc4n[nH]c(N)n4)cc3Cl)ccc21` [Compound 42, N*3*-[3,5-Dichloro-4-(1-methanesulfonyl-1H-indol-5-yl)-phenyl]-1H-[1,2,4]triazole-3,5-diamine]: the EC50 amounted to 0.212 µM in experiment [1] (setting [3]) and 2.27 µM in experiment [2].

For `Nc1nc(Nc2cc(Cl)c(-c3ccc(S(=O)(=O)N4CCC[C@H]4C(=O)O)cc3)c(C(F)(F)F)c2)n[nH]1` [Compound 51, (S)-1-[4′-(5-Amino-1H-[1,2,4]triazol-3-ylamino)-2′-chloro-6′-trifluoromethyl-biphenyl-4-sulfonyl]-pyrrolidine-2-carboxylic acid], the 50% effective concentration (EC50) in experiment [1] (setting [3]) was 0.678 µM; in experiment [2] it was > 10 µM.

For `Nc1nc(Nc2cc(Cl)c(-c3ccc(S(=O)(=O)N4CC(F)(F)C4)cc3)c(C(F)(F)F)c2)n[nH]1` [Compound 224, N*3*-[6-Chloro-4′-(3,3-difluoro-azetidine-1-sulfonyl)-2-trifluoromethyl-biphenyl-4-yl]-1H-[1,2,4]triazole-3,5-diamine], the EC50 stood at 0.02 µM in experiment [1] (setting [3]) and 4.57 µM in experiment [2].

Regarding `CC(C)(C)OC(=O)N1CC(COc2ccc(-c3c(Cl)cc(Nc4n[nH]c(N)n4)cc3Cl)cc2)C1` [Compound 260, 3-[4′-(5-Amino-1H-[1,2,4]triazol-3-ylamino)-2′,6′-dichloro-biphenyl-4-yloxymethyl]-azetidine-1-carboxylic acid tert-butyl ester], the EC50 in experiment [1] (setting [3]) was 0.022 µM; in experiment [2] it was 17.5 µM.

As to `Nc1nc(Nc2cc(Cl)c(-c3ccc(S(=O)(=O)NC4CC4)cc3)c(C(F)(F)F)c2)n[nH]1` [Compound 169, 4′-(5-amino-1H-1,2,4-triazol-3-ylamino)-2′-chloro-N-cyclopropyl-6′-(trifluoromethyl)biphenyl-4-sulfonamide], the EC50 in experiment [1] (setting [3]) is 0.011 µM; in experiment [2], 3.55 µM.

Take `Cc1ccc(-c2c(Cl)cc(Nc3n[nH]c(N)n3)cc2C(F)(F)F)cc1S(=O)(=O)NC(C)(C)C` [Compound 18, 4′-(5-Amino-1H-[1,2,4]triazol-3-ylamino)-2′-chloro-4-methyl-6′-trifluoromethyl-biphenyl-3-sulfonic acid tert-butylamide]: the values for the EC50 in experiment [1] (setting [3]) and in experiment [2] were 0.032 µM and 3.47 µM, respectively.

In the case of `Nc1ccc(-c2c(Cl)cc(Nc3n[nH]c(N)n3)cc2Cl)cc1` [Compound 50, N*3*-(4′-Amino-2,6-dichloro-biphenyl-4-yl)-1H-[1,2,4]triazole-3,5-diamine], the EC50 in experiment [1] (setting [3]) was 0.689 µM; in experiment [2], > 10 µM.

As to `Nc1nc(Nc2cc(Cl)c(-c3ccc(S(=O)(=O)NC4COC4)cc3)c(C(F)(F)F)c2)n[nH]1` [Compound 295, 4′-(5-amino-1H-1,2,4-triazol-3-ylamino)-2′-chloro-N-(oxetan-3-yl)-6′-(trifluoromethyl)biphenyl-4-sulfonamide], the EC50 amounted to 0.022 µM in experiment [1] (setting [3]) and 10 µM in experiment [2].

For the compound `Nc1nc(Nc2cc(Cl)c(-c3cccc(Cl)c3Cl)c(Cl)c2)n[nH]1` [Compound 109, N-3-(2,6,2′,3′-Tetrachloro-biphenyl-4-yl)-1H-[1,2,4]triazole-3,5-diamine], the EC50 stood at 0.74 µM in experiment [1] (setting [3]) and 46.5 µM in experiment [2].

As for `Nc1n[nH]c(Nc2cc(F)c(-c3ccc(C(F)(F)F)cc3)c(C(F)(F)F)c2)n1` [Compound 246, N^5-[6-Fluoro-2,4′-bis-trifluoromethylbiphenyl-4-yl]-1H-[1,2,4]-triazole-3,5-diamine], the EC50 is 3.54 µM in experiment [1] (setting [3]) and 37.9 µM in experiment [2].

As to `Nc1nc(Nc2cc(Cl)c(-c3ccc(NC(=O)C4CCC(F)(F)CC4)cc3)c(C(F)(F)F)c2)n[nH]1` [Compound 235, 4,4-Difluorocyclohexanecarboxylic acid [4′-(5-amino-1H-[1,2,4]triazol-3-ylamino)-2′-chloro-6′-trifluoromethyl-biphenyl-4-yl]-amide], the EC50 in experiment [1] (setting [3]) was 0.012 µM; in experiment [2], > 10 µM.

On to `Nc1nc(Nc2cc(Cl)c(-c3ccc(S(=O)(=O)N4CCS(=O)(=O)CC4)cc3)c(C(F)(F)F)c2)n[nH]1` [Compound 45, N*3*-[2-Chloro-4′-(1,1-dioxo-1lambda*6*-thiomorpholine-4-sulfonyl)-6-trifluoromethyl-biphenyl-4-yl]-1H-[1,2,4]triazole-3,5-diamine], for which the EC50 in experiment [1] (setting [3]) is 0.101 µM; in experiment [2], > 10 µM.

Consider `Nc1nc(Nc2cc(Cl)c(-c3ccc(S(N)(=O)=O)cc3)c(Cl)c2)n[nH]1` [Compound 253], for which the EC50 worked out at 0.026 µM in experiment [1] (setting [3]) and 0.6 µM in experiment [2].

With `Nc1nc(Nc2cc(Cl)c(-c3ccc4c(c3)NC(=O)CO4)c(C(F)(F)F)c2)n[nH]1` [Compound 47, 6-[4-(5-Amino-1H-[1,2,4]triazol-3-ylamino)-2-chloro-6-trifluoromethyl-phenyl]-4H-benzo[1,4]oxazin-3-one], the EC50 came to 0.544 µM in experiment [1] (setting [3]) and 0.82 µM in experiment [2].

For `COc1ccc(-c2c(Cl)cc(Nc3n[nH]c(N)n3)cc2C(F)(F)F)cc1OC(C)C` [Compound 229, N*3*-(6-Chloro-3′-isopropoxy-4′-methoxy-2-trifluoromethyl-biphenyl-4-yl)-1H-[1,2,4]triazole-3,5-diamine], the EC50 in experiment [1] (setting [3]) was 0.072 µM; in experiment [2] it was 6.47 µM.

For `Nc1nc(Nc2cc(Cl)c(-c3ccc(OC4CCCNC4)cc3)c(C(F)(F)F)c2)n[nH]1` (stereo not shown) [Compound 130, N*3*-[6-Chloro-4′-(piperidin-3-yloxy)-2-trifluoromethyl-biphenyl-4-yl]-1H-[1,2,4]triazole-3,5-diamine hydrochloride], the EC50 in experiment [1] (setting [3]) is 0.055 µM; in experiment [2], 8.67 µM.

For the compound `Nc1nc(Nc2ccc(-c3c(Cl)cccc3Cl)cc2)n[nH]1` [Compound 258], the results for the EC50 in experiment [1] (setting [3]) and in experiment [2] were 20.2 µM and 26.2 µM, respectively.

Turning to `Nc1nc(Nc2cc(Cl)c(-c3ccc(S(=O)(=O)N4CC5(COC5)C4)cc3)c(C(F)(F)F)c2)n[nH]1` [Compound 69, N*3*-[6-Chloro-4′-(2-oxa-6-aza-spiro[3.3]heptane-6-sulfonyl)-2-trifluoromethyl-biphenyl-4-yl]-1H-[1,2,4]triazole-3,5-diamine], the EC50 in experiment [1] (setting [3]) is 0.033 µM; in experiment [2] it was > 10 µM.

`Nc1nc(Nc2cc(Cl)c(-c3cccc(S(N)(=O)=O)c3)c(C(F)(F)F)c2)n[nH]1` [Compound 197, 4′-(5-amino-1H-1,2,4-triazol-3-ylamino)-2′-chloro-6′-(trifluoromethyl)biphenyl-3-sulfonamide 2,2,2-trifluoroacetate]: the EC50 is 0.249 µM in experiment [1] (setting [3]) and > 10 µM in experiment [2].

For the compound `Nc1nc(Nc2cc(Cl)c(-c3ccc(S(=O)(=O)NCCO)cc3)c(C(F)(F)F)c2)n[nH]1` [Compound 161, 4′-(5-Amino-1H-[1,2,4]triazol-3-ylamino)-2′-chloro-6′-trifluoromethyl-biphenyl-4-sulfonic acid (2-hydroxy-ethyl)-amide], the EC50 in experiment [1] (setting [3]) worked out at 0.058 µM; in experiment [2], 26.8 µM.

In the case of `COc1ccc(-c2c(Cl)cc(Nc3n[nH]c(N)n3)cc2C(F)(F)F)cc1S(=O)(=O)NC1(C)CN(C(=O)OC(C)(C)C)C1` [Compound 212, tert-butyl 3-(4′-(5-amino-1H-1,2,4-triazol-3-ylamino)-2′-chloro-4-methoxy-6′-(trifluoromethyl)biphenyl-3-ylsulfonamido)-3-methylazetidine-1-carboxylate], the EC50 in experiment [1] (setting [3]) came to 0.005 µM; in experiment [2], 1.42 µM.

On to `CN(C)C(=O)c1ccc(-c2c(Cl)cc(Nc3n[nH]c(N)n3)cc2Cl)cc1` [Compound 113, 4′-(5-Amino-1H-[1,2,4]triazol-3-ylamino)-2′,6′-dichloro-biphenyl-4-carboxylic acid dimethylamide], for which the values for the EC50 in experiment [1] (setting [3]) and in experiment [2] were 0.079 µM and 43.2 µM, respectively.

Consider `CN(C)S(=O)(=O)c1cccc(-c2c(Cl)cc(Nc3n[nH]c(N)n3)cc2C(F)(F)F)c1` [Compound 198, 4′-(5-amino-1H-1,2,4-triazol-3-ylamino)-2′-chloro-N,N-dimethyl-6′-(trifluoromethyl)biphenyl-3-sulfonamide], for which the results for the EC50 in experiment [1] (setting [3]) and in experiment [2] were 0.268 µM and 21.3 µM, respectively.

For `COc1ccc(-c2c(Cl)cc(Nc3n[nH]c(N)n3)cc2C(F)(F)F)cc1S(=O)(=O)NC1CCNCC1` [Compound 204, 4′-(5-amino-1H-1,2,4-triazol-3-ylamino)-2′-chloro-4-methoxy-N-(piperidin-4-yl)-6′-(trifluoromethyl)biphenyl-3-sulfonamide hydrochloride], the EC50 was 0.011 µM in experiment [1] (setting [3]) and > 10 µM in experiment [2].

For `CC(C)S(=O)(=O)c1ccc(-c2c(Cl)cc(Nc3n[nH]c(N)n3)cc2C(F)(F)F)cc1` [Compound 228, N*3*-[6-Chloro-4′-(propane-2-sulfonyl)-2-trifluoromethyl-biphenyl-4-yl]-1H-[1,2,4]triazole-3,5-diamine], the EC50 in experiment [1] (read-out: HCVpp GT-1b (EC50)) was 0.042 µM; in experiment [2] it was 7.52 µM.
